From patent US20080311126A1, “Antisense Oligonucleotides Directed to Ribonucleotide Reducatase R2 and Uses Thereof in Combination Therapies for the Treatment of Cancer” (Genesense Technologies, Inc, priority 2004, published 2008)
Oligonucleotides are written 5' to 3', each unit as a sugar letter and its base; * is a phosphorothioate linkage, no mark a phosphodiester; rarer units and linkages stand in square brackets, end groups in braces. Plain capitals give the bases only. d = 2'-deoxy (DNA)

What was measured:
Experiment in all cases: Relative colony forming efficiency (Example 17, Table 13)
Type in all cases: cell-based, human
[1] = test system: MDA PaCa-2 pancreatic cell carcinoma; settings: MIA PaCa-2 pancreatic cell carcinoma; averages of 2-8 determinations
Protocol: (§1) Colony forming efficiency was determined using standard protocols. […] The test oligonucleotides were added to cell cultures in the presence of 2.5 μg of DOTMA/DOPE (Lipofectin; Life Technologies, Inc.) for four hours. The oligonucleotide was tested at 0.2 μM unless otherwise indicated. Controls were the cultures treated with lipofectin but without the oligonucleotide. […] Surviving cells were visualized by methylene blue staining, and colonies were scored. In some experiments cell aliquots were removed from the culture and viability was determined using the trypan blue exclusion test. Results were analyzed as percent of surviving cells compared to control cells. To test the antisense effects of many of these sequences as phosphorthioate deoxyribonucleotides, they were examined in relative colony forming experiments conducted as described in Example 16 with a series of human tumour cell lines. The results (shown as % inhibition of colony forming ability) obtained with cancer cells derived from the bladder, breast, lung, colon, pancreas, prostate, liver and cervix, are shown in Table 13. The specific cell lines employed are as follows: […]

[2] = test system: T24 bladder cell carcinoma; settings: averages of 2-8 determinations
Protocol: as §1

[3] = test system: PC-3 prostrate cell adenocarcinoma; settings: averages of 2-8 determinations
Protocol: as §1

[4] = test system: HCT116 colon cell carcinoma; settings: averages of 2-8 determinations
Protocol: as §1

[5] = test system: A549 lung cell carcinoma; settings: averages of 2-8 determinations
Protocol: as §1

[6] = test system: HepG2 hepatocellular carcinoma; settings: averages of 2-8 determinations
Protocol: as §1

CAAATGGGTTCTCTACTCTG (antisense dC*dA*dA*dA*dT*dG*dG*dG*dT*dT*dC*dT*dC*dT*dA*dC*dT*dC*dT*dG) [AS-II-1217-20]
Reduced relative colony forming efficiency, MIA PaCa-2 (% inhibition of colony forming ability) [1]: 34.85%
Reduced relative colony forming efficiency, T24 (% inhibition of colony forming ability) [2]: 66.36%
Reduced relative colony forming efficiency, PC-3 (% inhibition of colony forming ability) [3]: 81.03%
Reduced relative colony forming efficiency, HCT116 (% inhibition of colony forming ability) [4]: 68.68%
Reduced relative colony forming efficiency, A549 (% inhibition of colony forming ability) [5]: 91.49%

GCGGCGGGGGTTTTCTCTCA (antisense dG*dC*dG*dG*dC*dG*dG*dG*dG*dG*dT*dT*dT*dT*dC*dT*dC*dT*dC*dA) [AS-II-412-20]
Reduced relative colony forming efficiency, MIA PaCa-2 (% inhibition of colony forming ability) [1]: 55.25%
Reduced relative colony forming efficiency, T24 (% inhibition of colony forming ability) [2]: 22.2%
Reduced relative colony forming efficiency, HepG2 (% inhibition of colony forming ability) [6]: 26.23%
Reduced relative colony forming efficiency, PC-3 (% inhibition of colony forming ability) [3]: 73.96%
Reduced relative colony forming efficiency, HCT116 (% inhibition of colony forming ability) [4]: 27.98%
Reduced relative colony forming efficiency, A549 (% inhibition of colony forming ability) [5]: 43.78%

TTGTGTACCAGGTGTTTGAA (antisense dT*dT*dG*dT*dG*dT*dA*dC*dC*dA*dG*dG*dT*dG*dT*dT*dT*dG*dA*dA) [AS-II-1023-20]
Reduced relative colony forming efficiency, MIA PaCa-2 (% inhibition of colony forming ability) [1]: 42.82%
Reduced relative colony forming efficiency, T24 (% inhibition of colony forming ability) [2]: 58.26%
Reduced relative colony forming efficiency, PC-3 (% inhibition of colony forming ability) [3]: 87.63%
Reduced relative colony forming efficiency, A549 (% inhibition of colony forming ability) [5]: 34.52%

GAAGCCATAGAAACAGCGGG (antisense dG*dA*dA*dG*dC*dC*dA*dT*dA*dG*dA*dA*dA*dC*dA*dG*dC*dG*dG*dG) [AS-II-667-20]
Reduced relative colony forming efficiency, MIA PaCa-2 (% inhibition of colony forming ability) [1]: 85.26%
Reduced relative colony forming efficiency, T24 (% inhibition of colony forming ability) [2]: 70.48%
Reduced relative colony forming efficiency, HepG2 (% inhibition of colony forming ability) [6]: 88.23%
Reduced relative colony forming efficiency, PC-3 (% inhibition of colony forming ability) [3]: 91.8%
Reduced relative colony forming efficiency, A549 (% inhibition of colony forming ability) [5]: 70.3%

CCGTGGGCTCCTGGAAGATC (antisense dC*dC*dG*dT*dG*dG*dG*dC*dT*dC*dC*dT*dG*dG*dA*dA*dG*dA*dT*dC) [AS-II-344-20]
Reduced relative colony forming efficiency, PC-3 (% inhibition of colony forming ability) [3]: 80.06%

AGCTGCTGCGGGTCCGTGAT (antisense dA*dG*dC*dT*dG*dC*dT*dG*dC*dG*dG*dG*dT*dC*dC*dG*dT*dG*dA*dT) [AS-II-225-20]
Reduced relative colony forming efficiency, MIA PaCa-2 (% inhibition of colony forming ability) [1]: 95.44%
Reduced relative colony forming efficiency, T24 (% inhibition of colony forming ability) [2]: 73.23%
Reduced relative colony forming efficiency, PC-3 (% inhibition of colony forming ability) [3]: 30.06%
Reduced relative colony forming efficiency, HCT116 (% inhibition of colony forming ability) [4]: 59.5%

CCAGCACTATAAACAGACAG (antisense dC*dC*dA*dG*dC*dA*dC*dT*dA*dT*dA*dA*dA*dC*dA*dG*dA*dC*dA*dG) [AS-II-1517-20]
Reduced relative colony forming efficiency, PC-3 (% inhibition of colony forming ability) [3]: 91.75%

AAGCGGCGGGGGTTTTCTCT (antisense dA*dA*dG*dC*dG*dG*dC*dG*dG*dG*dG*dG*dT*dT*dT*dT*dC*dT*dC*dT) [AS-II-414-20]
Reduced relative colony forming efficiency, MIA PaCa-2 (% inhibition of colony forming ability) [1]: 36.11%
Reduced relative colony forming efficiency, T24 (% inhibition of colony forming ability) [2]: 11.67%
Reduced relative colony forming efficiency, HepG2 (% inhibition of colony forming ability) [6]: 30.89%
Reduced relative colony forming efficiency, PC-3 (% inhibition of colony forming ability) [3]: 60.94%
Reduced relative colony forming efficiency, HCT116 (% inhibition of colony forming ability) [4]: 19.1%
Reduced relative colony forming efficiency, A549 (% inhibition of colony forming ability) [5]: 12.44%

AS-II-134220 (antisense dG*dA*dA*dG*dT*dC*dA*dG*dC*dA*dT*dC*dC*dA*dA*dG*dG*dT*dA*dA)
Reduced relative colony forming efficiency, MIA PaCa-2 (% inhibition of colony forming ability) [1]: 73.77%
Reduced relative colony forming efficiency, T24 (% inhibition of colony forming ability) [2]: 59.76%
Reduced relative colony forming efficiency, HepG2 (% inhibition of colony forming ability) [6]: 82.2%
Reduced relative colony forming efficiency, PC-3 (% inhibition of colony forming ability) [3]: 89.84%
Reduced relative colony forming efficiency, HCT116 (% inhibition of colony forming ability) [4]: 73.74%
Reduced relative colony forming efficiency, A549 (% inhibition of colony forming ability) [5]: 65.67%

AGCCTCTGCCTTCTTATACA (antisense dA*dG*dC*dC*dT*dC*dT*dG*dC*dC*dT*dT*dC*dT*dT*dA*dT*dA*dC*dA) [AS-II-472-20]
Reduced relative colony forming efficiency, MIA PaCa-2 (% inhibition of colony forming ability) [1]: 97.13%
Reduced relative colony forming efficiency, T24 (% inhibition of colony forming ability) [2]: 69.26%
Reduced relative colony forming efficiency, PC-3 (% inhibition of colony forming ability) [3]: 90.7%
Reduced relative colony forming efficiency, HCT116 (% inhibition of colony forming ability) [4]: 67.23%
Reduced relative colony forming efficiency, A549 (% inhibition of colony forming ability) [5]: 96.99%

TCAGCATCCAAGGTAAAAGA (antisense dT*dC*dA*dG*dC*dA*dT*dC*dC*dA*dA*dG*dG*dT*dA*dA*dA*dA*dG*dA) [AS-II-1338-20]
Reduced relative colony forming efficiency, MIA PaCa-2 (% inhibition of colony forming ability) [1]: 79.17%
Reduced relative colony forming efficiency, T24 (% inhibition of colony forming ability) [2]: 63.16%
Reduced relative colony forming efficiency, HepG2 (% inhibition of colony forming ability) [6]: 80.41%
Reduced relative colony forming efficiency, PC-3 (% inhibition of colony forming ability) [3]: 93.75%
Reduced relative colony forming efficiency, HCT116 (% inhibition of colony forming ability) [4]: 74.73%
Reduced relative colony forming efficiency, A549 (% inhibition of colony forming ability) [5]: 63.93%

ACTGCCATTGTCACTGCTAT (antisense dA*dC*dT*dG*dC*dC*dA*dT*dT*dG*dT*dC*dA*dC*dT*dG*dC*dT*dA*dT) [AS-II-1581-20]
Reduced relative colony forming efficiency, MIA PaCa-2 (% inhibition of colony forming ability) [1]: 24.07%
Reduced relative colony forming efficiency, T24 (% inhibition of colony forming ability) [2]: 68.22%
Reduced relative colony forming efficiency, HepG2 (% inhibition of colony forming ability) [6]: 93.07%
Reduced relative colony forming efficiency, PC-3 (% inhibition of colony forming ability) [3]: 85.83%
Reduced relative colony forming efficiency, HCT116 (% inhibition of colony forming ability) [4]: 66.85%
Reduced relative colony forming efficiency, A549 (% inhibition of colony forming ability) [5]: 90.55%

TGGGACAGGGTGCACGGGCG (antisense dT*dG*dG*dG*dA*dC*dA*dG*dG*dG*dT*dG*dC*dA*dC*dG*dG*dG*dC*dG) [AS-II-130-20]
Reduced relative colony forming efficiency, MIA PaCa-2 (% inhibition of colony forming ability) [1]: 82.11%
Reduced relative colony forming efficiency, HepG2 (% inhibition of colony forming ability) [6]: 94.28%
Reduced relative colony forming efficiency, PC-3 (% inhibition of colony forming ability) [3]: 74.66%
Reduced relative colony forming efficiency, A549 (% inhibition of colony forming ability) [5]: 86.48%

TTCTGGCAAAAGGTGATACT (antisense dT*dT*dC*dT*dG*dG*dC*dA*dA*dA*dA*dG*dG*dT*dG*dA*dT*dA*dC*dT) [AS-II-1538-20]
Reduced relative colony forming efficiency, MIA PaCa-2 (% inhibition of colony forming ability) [1]: 50.62%
Reduced relative colony forming efficiency, T24 (% inhibition of colony forming ability) [2]: 67.29%
Reduced relative colony forming efficiency, HepG2 (% inhibition of colony forming ability) [6]: 96.84%
Reduced relative colony forming efficiency, PC-3 (% inhibition of colony forming ability) [3]: 84.71%
Reduced relative colony forming efficiency, HCT116 (% inhibition of colony forming ability) [4]: 51.28%
Reduced relative colony forming efficiency, A549 (% inhibition of colony forming ability) [5]: 90.34%

GCATCCAAGGTAAAAGAATT (antisense dG*dC*dA*dT*dC*dC*dA*dA*dG*dG*dT*dA*dA*dA*dA*dG*dA*dA*dT*dT) [AS-II-1335-20]
Reduced relative colony forming efficiency, MIA PaCa-2 (% inhibition of colony forming ability) [1]: 78.78%
Reduced relative colony forming efficiency, T24 (% inhibition of colony forming ability) [2]: 59.95%
Reduced relative colony forming efficiency, HepG2 (% inhibition of colony forming ability) [6]: 72.98%
Reduced relative colony forming efficiency, PC-3 (% inhibition of colony forming ability) [3]: 90.04%
Reduced relative colony forming efficiency, HCT116 (% inhibition of colony forming ability) [4]: 67.87%
Reduced relative colony forming efficiency, A549 (% inhibition of colony forming ability) [5]: 78.59%

TCCTCGCGGTCTTGCTGGCC (antisense dT*dC*dC*dT*dC*dG*dC*dG*dG*dT*dC*dT*dT*dG*dC*dT*dG*dG*dC*dC) [AS-II-323-20]
Reduced relative colony forming efficiency, MIA PaCa-2 (% inhibition of colony forming ability) [1]: 97.55%
Reduced relative colony forming efficiency, HepG2 (% inhibition of colony forming ability) [6]: 96.39%
Reduced relative colony forming efficiency, PC-3 (% inhibition of colony forming ability) [3]: 79.76%
Reduced relative colony forming efficiency, HCT116 (% inhibition of colony forming ability) [4]: 55.8%
Reduced relative colony forming efficiency, A549 (% inhibition of colony forming ability) [5]: 91.24%

CGGCTCATCCTCCACGC (antisense dC*dG*dG*dC*dT*dC*dA*dT*dC*dC*dT*dC*dC*dA*dC*dG*dC) [AS-II-391-17]
Reduced relative colony forming efficiency, MIA PaCa-2 (% inhibition of colony forming ability) [1]: 26.35%
Reduced relative colony forming efficiency, HepG2 (% inhibition of colony forming ability) [6]: 60.64%
Reduced relative colony forming efficiency, PC-3 (% inhibition of colony forming ability) [3]: 93.25%

GACGGCTGGGACAGGGTGCA (antisense dG*dA*dC*dG*dG*dC*dT*dG*dG*dG*dA*dC*dA*dG*dG*dG*dT*dG*dC*dA) [AS-II-134-20]
Reduced relative colony forming efficiency, PC-3 (% inhibition of colony forming ability) [3]: 77.51%
